Calls of active or inactive are those of the source.
Experiments:
PC-12 [1] = experiment: Neuroprotective activity against MPP+-induced rat PC12 cell death assessed as upregulation of Scn4b gene expression at 1 to 10 uM preincubated for 1 hr followed by MPP+ addition and measured after 24 hrs by RNA sequencing analysis relative to control; assay type: functional; conditions: dose 1-10 µM; time 25 hrs
PC-12 [2] = experiment: Neuroprotective activity against MPP+-induced rat PC12 cell death assessed as downregulation of Sesn2 gene expression at 1 to 10 uM preincubated for 1 hr followed by MPP+ addition and measured after 24 hrs by RNA sequencing analysis relative to control; assay type: functional; conditions: dose 1-10 µM; time 25 hrs
PC-12 [3] = experiment: Neuroprotective activity against MPP+-induced rat PC12 cell death assessed as upregulation of Cdh1 gene expression at 1 to 10 uM preincubated for 1 hr followed by MPP+ addition and measured after 24 hrs by RNA sequencing analysis relative to control; assay type: functional; conditions: dose 1-10 µM; time 25 hrs
PC-12 [4] = experiment: Neuroprotective activity against MPP+-induced rat PC12 cell death assessed as downregulation of Ren gene expression at 1 to 10 uM preincubated for 1 hr followed by MPP+ addition and measured after 24 hrs by RNA sequencing analysis relative to control; assay type: functional; conditions: dose 1-10 µM; time 25 hrs
PC-12 [5] = experiment: Neuroprotective activity against MPP+-induced rat PC12 cell death assessed as downregulation of Dmpk gene expression at 1 to 10 uM preincubated for 1 hr followed by MPP+ addition and measured after 24 hrs by RNA sequencing analysis relative to control; assay type: functional; conditions: dose 1-10 µM; time 25 hrs
PC-12 [6] = experiment: Neuroprotective activity against MPP+-induced rat PC12 cell death assessed as increase in cell viability at […] preincubated for 1 hr followed by MPP+ addition and measured after 24 hrs by CCK-8 assay; assay type: functional, cell-based; conditions: time 25.0 hrs
PC-12 [7] = experiment: Neuroprotective activity against MPP+-induced rat PC12 cell death assessed as upregulation of Insr gene expression at 1 to 10 uM preincubated for 1 hr followed by MPP+ addition and measured after 24 hrs by RNA sequencing analysis relative to control; assay type: functional; conditions: dose 1-10 µM; time 25 hrs
PC-12 [8] = experiment: Neuroprotective activity against MPP+-induced rat PC12 cell death assessed as upregulation of Prkce gene expression at 1 to 10 uM preincubated for 1 hr followed by MPP+ addition and measured after 24 hrs by RNA sequencing analysis relative to control; assay type: functional; conditions: dose 1-10 µM; time 25 hrs
PC-12 [9] = experiment: Neuroprotective activity against MPP+-induced rat PC12 cell death assessed as upregulation of Stat6 gene expression at 1 to 10 uM preincubated for 1 hr followed by MPP+ addition and measured after 24 hrs by RNA sequencing analysis relative to control; assay type: functional; conditions: dose 1-10 µM; time 25 hrs
PC-12 [10] = experiment: Neuroprotective activity against MPP+-induced rat PC12 cell death assessed as downregulation of Ikbkg gene expression at 1 to 10 uM preincubated for 1 hr followed by MPP+ addition and measured after 24 hrs by RNA sequencing analysis relative to control; assay type: functional; conditions: dose 1-10 µM; time 25 hrs
PC-12 [11] = experiment: Neuroprotective activity against MPP+-induced rat PC12 cell death assessed as upregulation of Plau gene expression at 1 to 10 uM preincubated for 1 hr followed by MPP+ addition and measured after 24 hrs by RNA sequencing analysis relative to control; assay type: functional; conditions: dose 1-10 µM; time 25 hrs
PC-12 [12] = experiment: Neuroprotective activity against MPP+-induced rat PC12 cell death assessed as upregulation of Rora gene expression at 1 to 10 uM preincubated for 1 hr followed by MPP+ addition and measured after 24 hrs by RNA sequencing analysis relative to control; assay type: functional; conditions: dose 1-10 µM; time 25 hrs
PC-12 [13] = experiment: Neuroprotective activity against MPP+-induced rat PC12 cell death assessed as upregulation of Rph3a gene expression at 1 to 10 uM preincubated for 1 hr followed by MPP+ addition and measured after 24 hrs by RNA sequencing analysis relative to control; assay type: functional; conditions: dose 1-10 µM; time 25 hrs
PC-12 [14] = experiment: Neuroprotective activity against MPP+-induced rat PC12 cell death assessed as downregulation of Nlrp1a gene expression at 1 to 10 uM preincubated for 1 hr followed by MPP+ addition and measured after 24 hrs by RNA sequencing analysis relative to control; assay type: functional; conditions: dose 1-10 µM; time 25 hrs
PC-12 [15] = experiment: Neuroprotective activity against MPP+-induced rat PC12 cell death assessed as increase in cell viability preincubated for 1 hr followed by MPP+ addition and measured after 24 hrs by CCK-8 assay; assay type: functional, cell-based; conditions: dose 1-20 µM, time 25.0 hrs
PC-12 [16] = experiment: Neuroprotective activity against MPP+-induced rat PC12 cell death assessed as upregulation of Cryab gene expression at 1 to 10 uM preincubated for 1 hr followed by MPP+ addition and measured after 24 hrs by RNA sequencing analysis relative to control; assay type: functional; conditions: dose 1-10 µM; time 25 hrs
PC-12 [17] = experiment: Neuroprotective activity against MPP+-induced rat PC12 cell death assessed as downregulation of Cyp2b1 gene expression at 1 to 10 uM preincubated for 1 hr followed by MPP+ addition and measured after 24 hrs by RNA sequencing analysis relative to control; assay type: functional; conditions: dose 1-10 µM; time 25 hrs
PC-12 [18] = experiment: Neuroprotective activity against MPP+-induced rat PC12 cell death assessed as downregulation of Cntf gene expression at 1 to 10 uM preincubated for 1 hr followed by MPP+ addition and measured after 24 hrs by RNA sequencing analysis relative to control; assay type: functional; conditions: dose 1-10 µM; time 25 hrs
PC-12 [19] = experiment: Neuroprotective activity against MPP+-induced rat PC12 cell death assessed as upregulation of Lck gene expression at 1 to 10 uM preincubated for 1 hr followed by MPP+ addition and measured after 24 hrs by RNA sequencing analysis relative to control; assay type: functional; conditions: dose 1-10 µM; time 25 hrs
PC-12 [20] = experiment: Neuroprotective activity against MPP+-induced rat PC12 cell death assessed as cell viability at 20 uM preincubated for 1 hr followed by MPP+ addition and measured after 24 hrs by CCK-8 assay (reference value: 57%); assay type: functional; conditions: time 25 hrs, read-out: Activity
PC-12 [21] = experiment: Neuroprotective activity against MPP+-induced rat PC12 cell death assessed as upregulation of Cebpd gene expression at 1 to 10 uM preincubated for 1 hr followed by MPP+ addition and measured after 24 hrs by RNA sequencing analysis relative to control; assay type: functional; conditions: dose 1-10 µM; time 25 hrs
PC-12 [22] = experiment: Neuroprotective activity against MPP+-induced rat PC12 cell death assessed as downregulation of Unc13d gene expression at 1 to 10 uM preincubated for 1 hr followed by MPP+ addition and measured after 24 hrs by RNA sequencing analysis relative to control; assay type: functional; conditions: dose 1-10 µM; time 25 hrs
PC-12 [23] = experiment: Neuroprotective activity against MPP+-induced rat PC12 cell death assessed as upregulation of Rab5al1 gene expression at 1 to 10 uM preincubated for 1 hr followed by MPP+ addition and measured after 24 hrs by RNA sequencing analysis relative to control; assay type: functional; conditions: dose 1-10 µM; time 25 hrs
PC-12 [24] = experiment: Neuroprotective activity against MPP+-induced rat PC12 cell death assessed as upregulation of Ppial4d gene expression at 1 to 10 uM preincubated for 1 hr followed by MPP+ addition and measured after 24 hrs by RNA sequencing analysis relative to control; assay type: functional; conditions: dose 1-10 µM; time 25 hrs
PC-12 [25] = experiment: Neuroprotective activity against MPP+-induced rat PC12 cell death assessed as downregulation of Ugt1a3 gene expression at 1 to 10 uM preincubated for 1 hr followed by MPP+ addition and measured after 24 hrs by RNA sequencing analysis relative to control; assay type: functional; conditions: dose 1-10 µM; time 25 hrs
PC-12 [26] = experiment: Neuroprotective activity against MPP+-induced rat PC12 cell death assessed as downregulation of Vnn1 gene expression at 1 to 10 uM preincubated for 1 hr followed by MPP+ addition and measured after 24 hrs by RNA sequencing analysis relative to control; assay type: functional; conditions: dose 1-10 µM; time 25 hrs
PC-12 [27] = experiment: Neuroprotective activity against MPP+-induced rat PC12 cell death assessed as downregulation of Anxa1 gene expression at 1 to 10 uM preincubated for 1 hr followed by MPP+ addition and measured after 24 hrs by RNA sequencing analysis relative to control; assay type: functional; conditions: dose 1-10 µM; time 25 hrs

C=C1CC[C@H]2C(C)(C)[C@@H](O)C[C@@H](O)[C@]2(C)[C@H]1CO
71%: viability at 20 µM (PC-12 [20])
>0.4: log2FC (PC-12 [1]) | log2FC (PC-12 [2]) | log2FC (PC-12 [3]) | log2FC (PC-12 [4]) | log2FC (PC-12 [5]) | log2FC (PC-12 [7]) | log2FC (PC-12 [8]) | log2FC (PC-12 [9]) | log2FC (PC-12 [10]) | log2FC (PC-12 [11]) | log2FC (PC-12 [12]) | log2FC (PC-12 [13]) | log2FC (PC-12 [14]) | log2FC (PC-12 [16]) | log2FC (PC-12 [17]) | log2FC (PC-12 [18]) | log2FC (PC-12 [19]) | log2FC (PC-12 [21]) | log2FC (PC-12 [22]) | log2FC (PC-12 [23]) | log2FC (PC-12 [24]) | log2FC (PC-12 [25]) | log2FC (PC-12 [26]) | log2FC (PC-12 [27])
active: Activity (PC-12 [6]) | Activity (PC-12 [15]) Dose-Dependent Effect

From ChEMBL document CHEMBL5584358, “Fungal Coculture of Herpotrichia sp. and Trametes versicolor Induces Production of Diverse Metabolites with Anti-Parkinson's Neuroprotective Activity” (J Nat Prod, 2024)
